Data from US7935819B2, “Cyclic urea derivatives, preparation thereof and pharmaceutical use thereof as kinase inhibitors” (Aventis Pharma S.A., priority 2006, dated 2011).
Where two headings read alike, the source gives them in different places.

Experiments:
[1] = biological target: T1, IGF-1R (human cytoplasmic domain fused with GST) (Homo sapiens, UniProt P08069); assay: Kinase IGF-1R test (Test A): inhibition of autophosphorylation of the enzyme, HTRF; format: biochemical; settings: 120 μM ATP
T1 construct: The human cytoplasmic domain of IGF-1R was cloned by fusion with glutathione S-transferase (GST); made in house; host or cells: SF21 insect cells (baculovirus, pFastBac-GST)
Procedure: A) Experimental Protocol for the Kinase IGF-1R Test:
The inhibitory activity of the compounds on IGF1R is determined by measuring the inhibition of autophosphorylation of the enzyme using a time-resolved fluorescence test (HTRF). The human cytoplasmic domain of IGF-1R was cloned by fusion with glutathione S-transferase (GST) in the baculovirus expression vector pFastBac-GST. The protein is expressed in the SF21 cells and purified to about 80% homogeneity. For the enzymatic test, the test compound at 10 mM dissolved in DMSO is diluted in 1/3 steps in a 50 mM Hepes, pH 7.5, 5 mM MnCl2, 50 mM NaCl, 3% Glycerol, 0.025% Tween 20 buffer. To measure the inhibition, the successive dilutions of the compound are preincubated for 30 minutes and 90 minutes in the presence of 5 nM of enzyme, the final DMSO concentration not exceeding 1%. The enzymatic reaction is initiated to have a final ATP concentration of 120 μM, and is stopped after 5 minutes by addition of 100 mM Hepes, pH 7.0 buffer containing 0.4 M of potassium fluoride, 133 mM EDTA, 0.1% BSA, the XL665-labelled antibody anti-GST and the anti-phosphotyrosine antibody conjugated to europium cryptate Eu—K (Cis-Bio Int.). The characteristics of the two fluorophores, XL-665 and Eu—K, are available in G. Mathis et al., Anticancer Research, 1997, 17, pages 3011-3014. The energy transfer between the excited europium cryptate to the acceptor XL665 is proportional to the degree of autophosphorylation of IGF-1R. The specific long-lasting signal of XL-665 is measured in a GENios Pro TECAN plate counter. The inhibition of autophosphorylation of IGF-1R at time 30 minutes and 90 minutes with the test compounds of the invention is calculated relative to a 1% in DMSO control, whose activity is measured in the absence of compound. The curve representing the percentage of inhibition as a function of the log of the concentration is established to determine the concentration corresponding to 50% inhibition (IC50).

IGF1R in MCF-7 cells = biological target: T2, IGF1R in MCF-7 cells (Homo sapiens, UniProt P08069); assay: Autophosphorylation of IGF-1R in MCF7 cells after stimulation with IGF-1 (Test B), ELISA; format: cell-based; settings: compound added one hour before IGF1 stimulation (10 minutes)
T2 construct: endogenous in cells; host or cells: MCF-7 cells
Procedure: B) Measurement of the Autophosphorylation of IGF-1r in MCF7 Cells after Stimulation with IGF-1
Cell Culturing and Execution of the Test:
The autophosphorylation of IGF1R in the IGF1-induced cells is evaluated by means of an ELISA technique (Enzyme Linked ImmunoSorbent Assay). The MCF-7 are seeded at 60 000 cells per well in 6-well plates and incubated at 37° C., 5% CO2 in medium containing 10% serum. After one night in 10% serum, the cells are deprived of serum for 24 hours. The compounds are added to the medium one hour before stimulation with IGF1. After 10 minutes of stimulation with IGF1, the cells are lysed with a buffer (Hepes 50 mM pH 7.6, Triton X100 1%, orthovanadate 2 mM, protease inhibitor cocktail). The cell lysates are incubated on a 96-well plate precoated with an anti-IGF1R antibody, followed by incubation with an anti-phosphotyrosine antibody coupled to the enzyme peroxidase. The level of peroxidase activity (measured by OD with a luminescent substrate) reflects the phosphorylation status of the receptor.
(§1) (i) The tests are performed in duplicate and the mean of the two tests is calculated.
(§2) (ii) The value of the signal of the maximum response is calculated from the positive control: cells stimulated with IGF1 without compound.
(§3) (iii) Value of the signal of the minimum response is calculated from the negative control: cells not stimulated with IGF1 without compound.
(§4) (iv) By using these values as maximum (100%) and minimum (0%), respectively, the data were normalized so as to give a percentage of the maximum response.
(§5) (v) A curve of dose response is plotted and the IC50 (the concentration of which the compound induces a 50% decrease in the signal) of the compound is calculated by non-linear regression analysis.

[2] = biological target: MEF-IGF1R cells (stable clone transfected with hIGF-1R) (Homo sapiens, UniProt P08069); assay: Proliferation/viability of MEF-IGF1R (Test C), [14C]thymidine incorporation; format: cell-based; settings: rhIGF1 100 ng/mL, 72 hours, read-out: Test C IC50
Procedure: C) Measurement of the Proliferation/Viability of MEF-IGF1R
Cell culture: the MEF-IGF1R cells (stable clone of cells transfected with the receptor hIGF-1R) are cultured at 37° C. under 5% CO2 in EMEM medium containing 10% FCS.
Test procedure: the cells are seeded at 5000 cells per well in 96-well Cytostar plates (Amersham) with 0.2 mL of EMEM culture medium at 37° C. for 18 hours. The cells are then washed twice with EMEM medium and left to culture without serum for 24 hours. The compounds are then added at various concentrations in the presence of rhIGF1 (100 ng/mL) and 0.1 μCi of Thymidine [^14C] (specific activity ˜50 mCi/mmol) to give 0.2 mL of volume per well. After incubation for 72 hours in the presence of the compound, at 37° C. under 5% CO2, the incorporation of Thymidine [^14C] is measured by counting the radioactivity on a Microbeta trilux counter (Perkin-Elmer). The IC50 is determined from 10 increasing concentrations of the compound.
as §1, §2, §3, §4, §5

[3] = preincubation with enzyme 30 minutes, read-out: Test A 30′ IC50
[4] = preincubation with enzyme 90 minutes, read-out: Test A 90′ IC50

Chain of MEF-IGF1R cells (stable clone transfected with hIGF-1R) (P08069 whole entry, change not shown): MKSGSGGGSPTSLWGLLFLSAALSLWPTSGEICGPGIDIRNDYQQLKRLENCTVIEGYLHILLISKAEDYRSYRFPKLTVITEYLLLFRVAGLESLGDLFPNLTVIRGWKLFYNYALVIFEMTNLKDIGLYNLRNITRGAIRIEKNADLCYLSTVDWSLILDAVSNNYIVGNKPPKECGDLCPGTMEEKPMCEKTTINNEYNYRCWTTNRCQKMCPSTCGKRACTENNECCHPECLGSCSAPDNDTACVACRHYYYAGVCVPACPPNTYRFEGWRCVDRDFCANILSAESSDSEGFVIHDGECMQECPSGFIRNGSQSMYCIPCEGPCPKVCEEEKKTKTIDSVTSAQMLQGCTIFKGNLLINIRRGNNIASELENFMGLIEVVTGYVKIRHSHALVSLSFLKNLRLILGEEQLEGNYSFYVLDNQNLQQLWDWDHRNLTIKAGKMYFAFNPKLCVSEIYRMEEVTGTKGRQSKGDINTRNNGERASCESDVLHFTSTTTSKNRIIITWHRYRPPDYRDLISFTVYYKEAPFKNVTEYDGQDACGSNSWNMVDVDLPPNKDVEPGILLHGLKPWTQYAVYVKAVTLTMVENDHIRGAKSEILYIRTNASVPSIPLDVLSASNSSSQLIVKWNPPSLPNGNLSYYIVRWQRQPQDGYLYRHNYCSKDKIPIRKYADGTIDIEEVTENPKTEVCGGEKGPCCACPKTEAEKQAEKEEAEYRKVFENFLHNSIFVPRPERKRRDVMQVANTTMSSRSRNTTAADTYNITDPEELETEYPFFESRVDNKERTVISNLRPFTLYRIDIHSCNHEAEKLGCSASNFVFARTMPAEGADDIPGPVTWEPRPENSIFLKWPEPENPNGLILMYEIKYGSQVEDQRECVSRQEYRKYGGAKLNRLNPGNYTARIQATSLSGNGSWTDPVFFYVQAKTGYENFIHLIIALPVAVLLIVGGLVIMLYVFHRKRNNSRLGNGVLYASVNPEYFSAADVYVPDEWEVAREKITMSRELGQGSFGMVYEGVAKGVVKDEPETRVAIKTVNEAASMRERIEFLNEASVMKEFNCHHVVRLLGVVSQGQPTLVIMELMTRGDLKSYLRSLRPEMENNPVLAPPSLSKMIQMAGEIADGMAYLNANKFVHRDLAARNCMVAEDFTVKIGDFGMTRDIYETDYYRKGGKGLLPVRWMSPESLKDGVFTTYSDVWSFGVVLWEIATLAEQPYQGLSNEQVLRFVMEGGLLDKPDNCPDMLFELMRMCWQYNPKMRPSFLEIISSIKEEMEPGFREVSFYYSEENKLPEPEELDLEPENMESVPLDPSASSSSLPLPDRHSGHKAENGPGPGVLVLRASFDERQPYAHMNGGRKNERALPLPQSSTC
T2 sequence (P08069 31-1367): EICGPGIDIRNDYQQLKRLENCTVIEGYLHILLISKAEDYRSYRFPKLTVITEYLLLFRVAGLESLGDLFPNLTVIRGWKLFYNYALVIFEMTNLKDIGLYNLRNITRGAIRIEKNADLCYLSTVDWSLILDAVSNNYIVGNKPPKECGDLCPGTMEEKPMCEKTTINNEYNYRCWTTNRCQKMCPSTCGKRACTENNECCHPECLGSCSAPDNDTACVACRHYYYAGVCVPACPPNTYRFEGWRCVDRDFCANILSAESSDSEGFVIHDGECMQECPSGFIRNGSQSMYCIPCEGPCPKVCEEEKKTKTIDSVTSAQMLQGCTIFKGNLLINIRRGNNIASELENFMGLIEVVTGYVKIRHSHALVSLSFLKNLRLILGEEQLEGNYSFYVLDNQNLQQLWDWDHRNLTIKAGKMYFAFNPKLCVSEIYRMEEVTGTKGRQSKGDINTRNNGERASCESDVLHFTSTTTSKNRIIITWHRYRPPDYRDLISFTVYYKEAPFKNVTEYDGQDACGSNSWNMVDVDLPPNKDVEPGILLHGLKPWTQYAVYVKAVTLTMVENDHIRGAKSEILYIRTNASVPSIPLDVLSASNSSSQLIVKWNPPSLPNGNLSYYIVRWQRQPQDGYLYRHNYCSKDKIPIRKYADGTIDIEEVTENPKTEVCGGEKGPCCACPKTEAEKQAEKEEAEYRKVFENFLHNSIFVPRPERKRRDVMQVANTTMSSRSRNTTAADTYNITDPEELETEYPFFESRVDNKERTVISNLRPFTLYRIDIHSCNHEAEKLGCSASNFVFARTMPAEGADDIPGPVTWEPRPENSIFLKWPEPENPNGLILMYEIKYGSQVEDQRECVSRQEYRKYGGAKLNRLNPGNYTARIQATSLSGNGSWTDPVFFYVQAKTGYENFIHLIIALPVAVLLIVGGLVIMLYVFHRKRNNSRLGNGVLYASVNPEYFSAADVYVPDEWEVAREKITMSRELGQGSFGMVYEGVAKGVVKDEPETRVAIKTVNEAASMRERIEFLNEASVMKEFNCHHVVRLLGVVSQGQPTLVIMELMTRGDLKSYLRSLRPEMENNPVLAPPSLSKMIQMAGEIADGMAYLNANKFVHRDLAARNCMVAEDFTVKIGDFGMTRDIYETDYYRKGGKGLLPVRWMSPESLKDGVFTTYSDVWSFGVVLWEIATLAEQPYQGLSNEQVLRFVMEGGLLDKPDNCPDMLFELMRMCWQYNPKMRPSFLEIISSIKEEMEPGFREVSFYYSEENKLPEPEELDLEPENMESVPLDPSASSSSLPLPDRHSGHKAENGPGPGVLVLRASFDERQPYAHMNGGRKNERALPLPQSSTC
T1 sequence (P08069 960-1367 limits assumed): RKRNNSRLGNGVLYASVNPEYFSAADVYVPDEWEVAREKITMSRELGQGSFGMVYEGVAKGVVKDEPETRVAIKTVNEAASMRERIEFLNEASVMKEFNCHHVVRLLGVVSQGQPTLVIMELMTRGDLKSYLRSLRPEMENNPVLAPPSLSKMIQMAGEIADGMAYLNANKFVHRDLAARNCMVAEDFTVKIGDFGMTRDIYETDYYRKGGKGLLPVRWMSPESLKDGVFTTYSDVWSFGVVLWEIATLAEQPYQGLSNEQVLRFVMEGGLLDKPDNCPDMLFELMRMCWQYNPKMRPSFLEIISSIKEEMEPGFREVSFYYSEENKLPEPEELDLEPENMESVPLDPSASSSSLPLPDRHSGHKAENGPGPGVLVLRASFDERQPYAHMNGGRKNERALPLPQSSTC

SMILES | IC50 [1, 3] | IC50 [1, 4] | IC50 (IGF1R in MCF-7 cells) | GI50 [2]
CC(C)(C)c1ccc(N2C(=O)N(Cc3ccnc(NC(=O)N4CCCC4)c3)C(C)(C)C2=O)cc1 [Example 19, N-(4-{[3-(4-tert-butylphenyl)-5,5-dimethyl-2,4-dioxoimidazolidin-1-yl]methyl}pyridin-2-yl)pyrrolidine-1-carboxamide] | 10 to 100 nM | 10 to 100 nM | < 10 nM | 10 to 100 nM
CC(C)(C)c1ccc(N2C(=O)N(Cc3ccnc(NC4CC4)c3)C(C)(C)C2=O)cc1 [Example 31J, 3-(4-tert-butylphenyl)-1-{[2-(cyclopropylamino)pyridin-4-yl]methyl}-5,5-dimethylimidazolidine-2,4-dione] | 10 to 100 nM | < 10 nM | 10 to 100 nM | 10 to 100 nM
CC(C)(C)c1ccc(N2C(=O)N(Cc3ccnc(NC(=O)NC4CC4)c3)C(C)(C)C2=O)cc1 [Example 13, 1-(4-{[3-(4-tert-butylphenyl)-5,5-dimethyl-2,4-dioxoimidazolidin-1-yl]methyl}pyridin-2-yl)-3-cyclopropylurea] | 10 to 100 nM | 10 to 100 nM | 10 to 100 nM | 10 to 100 nM
CC(C)(C)c1ccc(N2C(=O)N(Cc3ccnc(NC(=O)N4CCC4)c3)C(C)(C)C2=O)cc1 [Example 18, N-(4-{[3-(4-tert-butylphenyl)-5,5-dimethyl-2,4-dioxoimidazolidin-1-yl]methyl}pyridin-2-yl)azetidine-1-carboxamide] | 10 to 100 nM | 10 to 100 nM | < 10 nM | 10 to 100 nM
CC(C)(C)c1ccc(N2C(=O)N(Cc3ccnc(Nc4cncnc4)n3)C(C)(C)C2=O)cc1 [Example 8, 3-(4-tert-butylphenyl)-5,5-dimethyl-1-{[2-(pyrimidin-5-ylamino)pyrimidin-4-yl]methyl}imidazolidine-2,4-dione] | 10 to 100 nM | < 10 nM | < 10 nM | < 10 nM
CC(C)(C)c1ccc(N2C(=O)N(Cc3ccnc(Nc4ccc(Cl)nc4)c3)C(C)(C)C2=O)cc1 [Example 31L, 3-(4-tert-butylphenyl)-1-({2-[(6-chloropyridin-3-yl)amino]pyridin-4-yl}methyl)-5,5-dimethylimidazolidine-2,4-dione] | > 100 nM | 10 to 100 nM | 10 to 100 nM | 10 to 100 nM
CC(C)(CO)c1ccc(N2C(=O)N(Cc3ccnc(Nc4cccnc4)c3)C(C)(C)C2=O)cc1 [Example 31N, 3-[4-(2-hydroxy-1,1-dimethylethyl)phenyl]-5,5-dimethyl-1-{[2-(pyridin-3-ylamino)pyridin-4-yl]methyl}-imidazolidine-2,4-dione] | > 100 nM | 10 to 100 nM | 10 to 100 nM | > 100 nM
CC(C)(C)c1ccc(N2C(=O)N(Cc3ccnc(Nc4cccnc4Cl)c3)C(C)(C)C2=O)cc1 [Example 31K, 3-(4-tert-butylphenyl)-1-({2-[(2-chloropyridin-3-yl)amino]pyridin-4-yl}methyl)-5,5-dimethylimidazolidine-2,4-dione] | 10 to 100 nM | 10 to 100 nM | < 10 nM | 10 to 100 nM
CC(C)(C)c1ccc(N2C(=O)N(Cc3ccnc(Nc4cccc(CCN5CCCC5)c4)c3)C(C)(C)C2=O)cc1 [Example 31H, 3-(4-tert-butylphenyl)-5,5-dimethyl-1-[(2-{[3-(2-pyrrolidin-1-ylethyl)phenyl]amino}pyridin-4-yl)methyl]imidazolidine-2,4-dione] | 10 to 100 nM | < 10 nM | < 10 nM | < 10 nM
CC(C)(C)c1ccc(N2C(=O)N(Cc3ccnc(Nc4ccc(O)nc4)c3)C(C)(C)C2=O)cc1 [Example 31M, 3-(4-tert-butylphenyl)-1-({2-[(6-hydroxypyridin-3-yl)amino]pyridin-4-yl}methyl)-5,5-dimethylimidazolidine-2,4-dione] | 10 to 100 nM | 10 to 100 nM | 10 to 100 nM | 10 to 100 nM
CN(C)CC(=O)N1CC(C)(C)c2ccc(N3C(=O)N(Cc4ccnc(NC(=O)N(C)C)c4)C(C)(C)C3=O)cc21 [Example 31C, 3-[4-({3-[1-(N,N-dimethylglycyl)-3,3-dimethyl-2,3-dihydro-1H-indol-6-yl]-5,5-dimethyl-2,4-dioxoimidazolidin-1-yl}methyl)pyridin-2-yl]-1,1-dimethylurea] | > 100 nM | > 100 nM | 10 to 100 nM | 10 to 100 nM
CC(C)(C)c1ccc(N2C(=O)N(Cc3ccnc(NC(=O)NCCCCN4CCCC4)c3)C(C)(C)C2=O)cc1 [Example 12, 1-(4-{[3-(4-tert-butylphenyl)-5,5-dimethyl-2,4-dioxoimidazolidin-1-yl]methyl}pyridin-2-yl)-3-(4-pyrrolidin-1-ylbutyl)urea] | 10 to 100 nM | < 10 nM | – | > 100 nM
CC(C)(C)c1ccc(N2C(=O)N(Cc3ccnc(NC(=O)NC4CCCC4)c3)C(C)(C)C2=O)cc1 [Example 10, 1-(4-{[3-(4-tert-butylphenyl)-5,5-dimethyl-2,4-dioxoimidazolidin-1-yl]methyl}pyridin-2-yl)-3-cyclopentylurea] | 10 to 100 nM | 10 to 100 nM | – | > 100 nM
CC1(C)C(=O)N(c2ccc(OC(F)(F)F)c(NC(=O)[C@H](N)c3ccccc3)c2)C(=O)N1Cc1ccnc(Nc2cccnc2)c1 [Example 5a, (2R)-2-amino-N-[5-(4,4-dimethyl-2,5-dioxo-3-{[2-(pyridin-3-ylamino)pyridin-4-yl]methyl}imidazolidin-1-yl)-2-(trifluoromethoxy)phenyl]-2-phenylacetamide] | 10 to 100 nM | 10 to 100 nM | – | < 10 nM
CCCCN(C)C(=O)Nc1cc(CN2C(=O)N(c3ccc(C(C)(C)C)cc3)C(=O)C2(C)C)ccn1 [Example 27, 1-butyl-3-(4-{[3-(4-tert-butylphenyl)-5,5-dimethyl-2,4-dioxoimidazolidin-1-yl]methyl}pyridin-2-yl)-1-methylurea] | 10 to 100 nM | 10 to 100 nM | – | > 100 nM
CC(C)(C)c1ccc(N2C(=O)N(Cc3ccnc(NC(=O)NCCCN4CCCC4)c3)C(C)(C)C2=O)cc1 [Example 9, 1-(4-{[3-(4-tert-butylphenyl)-5,5-dimethyl-2,4-dioxoimidazolidin-1-yl]methyl}pyridin-2-yl)-3-(3-pyrrolidin-1-ylpropyl)urea] | 10 to 100 nM | 10 to 100 nM | – | > 100 nM
